Source: publication PMC5386260, “Acute development of cortical porosity and endosteal naïve bone formation from the daily but not weekly short-term administration of PTH in rabbit” (PLoS ONE, 2017)
Where two headings read alike, the source gives them in different places.

Assay: Plasma TPTD concentration and pharmacokinetics (Rat PTH IRMA Kit, non-compartmental model)
Type: in vivo, rabbit
Details: for level at 2 h / level at 5 min / level at 0.25 h / level at 0.5 h / level at 1 h: female, New Zealand White (Kbl:NZW), rabbit, plasma, sc, IRMA, mean; for AUC / Cmax / Tmax / half-life: in vivo; for half-life: read-out: T1/2 (elimination half-life) of plasma TPTD (converted)
Description: Seventeen female New Zealand White rabbits (Kbl:NZW) were purchased from Kitayama Labs (Nagano, Japan) and were allowed to acclimatize with free access to water and food for 6 days before use. Throughout the experimental study, the animals were housed individually under a 12-h light/dark cycle with free access to water, but their food intake was restricted to 120g /day (LRC4, standard diet for rabbits; Oriental Yeast, Tokyo, Japan). The animals at 6 months of age were divided into 5 groups and were subcutaneously injected with 20 or 40 μg/kg of TPTD once-daily (D20 group [n = 3] and D40 group [n = 3], 140 or 280 μg/kg of TPTD once-weekly (W140 group [n = 3] and W280 group [n = 4]) for four weeks (Table 1). For the high-dose administration of TPTD, the dosage in once-daily treatment was set at 40 μg/kg/day based on a previous study, while the dosage of once-weekly TPTD treatment was set at 280 μg/kg/week; thus, the cumulative dose of TPTD each week was the same with the two treatment frequencies. In the W140 and W280 groups, saline was administered every day, except for the days on which TPTD was administered. Saline injections were administered to control animals (C group, n = 4) once daily and to each group as a vehicle.
[…] The samples were centrifuged at 1600 x g, at 4°C for 10 minutes and plasma samples were collected in order to measure the concentration of TPTD. […]
Teriparatide acetate was synthesized at Asahi Kasei Pharma Corporation (Tokyo, Japan) and was used as a standard substance. The teriparatide acetate concentration in the rabbit plasma was quantified using a Rat PTH IRMA Kit (Immutopics, Inc., San Clemente, CA) according to the manufacturer’s instructions. The pharmacokinetic parameters were calculated using a non-compartmental model (Phoenix WinNonlin; Pharsight, Mountain View, CA).

[1] = 20 ug/kg, rabbit plasma, D20 (20 μg/kg sc once-daily), n=3, mean ± SD
[2] = 40 ug/kg, rabbit plasma, D40 (40 μg/kg sc once-daily), n=3, mean ± SD
[3] = 140 ug/kg, rabbit plasma, W140 (140 μg/kg sc once-weekly), n=3, mean ± SD
[4] = 280 ug/kg, rabbit plasma, W280 (280 μg/kg sc once-weekly), n=4, mean ± SD

With `CC[C@H](C)[C@H](NC(=O)[C@H](CCC(=O)O)NC(=O)[C@H](CO)NC(=O)[C@@H](NC(=O)[C@@H](N)CO)C(C)C)C(=O)N[C@@H](CCC(N)=O)C(=O)N[C@@H](CC(C)C)C(=O)N[C@@H](CCSC)C(=O)N[C@@H](Cc1cnc[nH]1)C(=O)N[C@@H](CC(N)=O)C(=O)N[C@@H](CC(C)C)C(=O)NCC(=O)N[C@@H](CCCCN)C(=O)N[C@@H](Cc1cnc[nH]1)C(=O)N[C@@H](CC(C)C)C(=O)N[C@@H](CC(N)=O)C(=O)N[C@@H](CO)C(=O)N[C@@H](CCSC)C(=O)N[C@@H](CCC(=O)O)C(=O)N[C@@H](CCCN=C(N)N)C(=O)N[C@H](C(=O)N[C@@H](CCC(=O)O)C(=O)N[C@@H](Cc1c[nH]c2ccccc12)C(=O)N[C@@H](CC(C)C)C(=O)N[C@@H](CCCN=C(N)N)C(=O)N[C@@H](CCCCN)C(=O)N[C@@H](CCCCN)C(=O)N[C@@H](CC(C)C)C(=O)N[C@@H](CCC(N)=O)C(=O)N[C@@H](CC(=O)O)C(=O)N[C@H](C(=O)N[C@@H](Cc1cnc[nH]1)C(=O)N[C@@H](CC(N)=O)C(=O)N[C@@H](Cc1ccccc1)C(=O)O)C(C)C)C(C)C` [TPTD, Teriparatide] the level at 2 h (140 ug/kg, Day 22, 2 hour, W140 (140 μg/kg sc once-weekly), n=3) was 37.8 ng/mL, the level at 5 min (280 ug/kg, Day 1, 5 min, W280 (280 μg/kg sc once-weekly), n=4) was 60.6 ng/mL and the level at 0.25 h (280 ug/kg, Day 1, 15 min, W280 (280 μg/kg sc once-weekly), n=4) was 177 ng/mL. It also gave a level at 0.5 h (280 ug/kg, Day 1, 30 min, W280 (280 μg/kg sc once-weekly), n=4) of 295 ng/mL, a level at 1 h (280 ug/kg, Day 1, 1 hour, W280 (280 μg/kg sc once-weekly), n=4) of 255 ng/mL and a level at 2 h (280 ug/kg, Day 1, 2 hour, W280 (280 μg/kg sc once-weekly), n=4) of 87.4 ng/mL. It also gave a level at 5 min (280 ug/kg, Day 22, 5 min, W280 (280 μg/kg sc once-weekly), n=4) of 67.7 ng/mL, a level at 0.25 h (280 ug/kg, Day 22, 15 min, W280 (280 μg/kg sc once-weekly), n=4) of 232 ng/mL and a level at 0.5 h (280 ug/kg, Day 22, 30 min, W280 (280 μg/kg sc once-weekly), n=4) of 356 ng/mL. The level at 1 h (280 ug/kg, Day 22, 1 hour, W280 (280 μg/kg sc once-weekly), n=4) was 280 ng/mL, the level at 2 h (280 ug/kg, Day 22, 2 hour, W280 (280 μg/kg sc once-weekly), n=4) was 62.4 ng/mL and the AUC [1] was 21.1 ± 3.67 ng·h/mL. It also gave a Cmax [1] of 19.8 ± 5.67 ng/mL, a Tmax [1] of 30 min and a half-life (20 ug/kg, rabbit plasma, D20 (20 μg/kg sc once-daily), n=3, non-compartmental, mean ± SD) of 26.4 ± 9 min. For the same molecule, the AUC [2] was 46.8 ± 10.7 ng·h/mL, the Cmax [2] was 34.3 ± 8.19 ng/mL and the Tmax [2] was 30 min. The half-life (40 ug/kg, rabbit plasma, D40 (40 μg/kg sc once-daily), n=3, non-compartmental, mean ± SD) was 55.8 ± 19.2 min, the AUC [3] was 188 ± 35.5 ng·h/mL and the Cmax [3] was 133 ± 28 ng/mL. The Tmax [3] was 40.2 ± 17.4 min, the half-life (140 ug/kg, rabbit plasma, W140 (140 μg/kg sc once-weekly), n=3, non-compartmental, mean ± SD) was 55.8 ± 9.6 min and the AUC [4] was 390 ± 75.6 ng·h/mL. For the same molecule, the Cmax [4] was 315 ± 67.8 ng/mL, the Tmax [4] was 45 ± 17.4 min and the half-life (280 ug/kg, rabbit plasma, W280 (280 μg/kg sc once-weekly), n=4, non-compartmental, mean ± SD) was 41.4 ± 16.2 min. For the same molecule, the Tmax post-dose (rabbit plasma, D20 (20 μg/kg sc once-daily)) was 30 min, the Tmax post-dose (rabbit plasma, D40 (40 μg/kg sc once-daily)) was 30 min and the “estimated Tmax post-dose” value (rabbit plasma, W140 (140 μg/kg sc once-weekly)) was 40 min. For the same molecule, the “T1/2 (elimination half-life) of plasma TPTD” value (rabbit plasma, W140 (140 μg/kg sc once-weekly), n=3, non-compartmental, mean ± SD) was 55.8 ± 9.6 min and the “estimated Tmax post-dose” value (rabbit plasma, W280 (280 μg/kg sc once-weekly)) was 45 min.
